Source: patent publication US8293781B2, “Indole derivatives having cPLA2 inhibiting activity and applications and production methods of the same” (Daiichi Sankyo Company, Limited, priority 2007, dated 2012)
Structures can show the parent of a compound that is named as a salt.

Target: T1, cPLA2 crudely purified from the cytoplasm fraction of U937 (Homo sapiens, UniProt P47712)
T1 construct: cPLA2 crudely purified from the cytoplasm fraction of U937; endogenous in cells; host or cells: U937 cells (cytoplasm fraction, crude purification)
T1 sequence (P47712 1-749): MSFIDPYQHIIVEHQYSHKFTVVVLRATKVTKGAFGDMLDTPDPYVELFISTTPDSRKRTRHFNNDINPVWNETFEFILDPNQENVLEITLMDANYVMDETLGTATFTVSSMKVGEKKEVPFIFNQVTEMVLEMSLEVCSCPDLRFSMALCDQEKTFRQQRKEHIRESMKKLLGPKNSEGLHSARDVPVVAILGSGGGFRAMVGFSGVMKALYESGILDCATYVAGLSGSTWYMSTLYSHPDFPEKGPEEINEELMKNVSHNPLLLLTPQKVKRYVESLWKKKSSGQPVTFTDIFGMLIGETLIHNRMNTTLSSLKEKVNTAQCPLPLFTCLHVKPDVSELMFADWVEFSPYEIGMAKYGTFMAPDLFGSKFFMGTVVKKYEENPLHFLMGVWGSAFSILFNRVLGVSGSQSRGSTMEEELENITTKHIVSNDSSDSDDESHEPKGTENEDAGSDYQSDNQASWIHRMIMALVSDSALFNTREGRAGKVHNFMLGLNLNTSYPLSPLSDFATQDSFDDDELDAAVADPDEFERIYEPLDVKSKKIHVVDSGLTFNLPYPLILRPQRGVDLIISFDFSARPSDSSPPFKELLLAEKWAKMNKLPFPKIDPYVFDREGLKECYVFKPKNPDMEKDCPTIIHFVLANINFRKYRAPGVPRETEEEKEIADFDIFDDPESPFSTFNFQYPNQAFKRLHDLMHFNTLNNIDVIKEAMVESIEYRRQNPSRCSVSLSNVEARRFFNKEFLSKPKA
Assay: Measurement of cPLA2 inhibitory activity (release of [14C]-arachidonic acid from phosphatidyl choline liposome)
Type: biochemical
Settings: cPLA2 from U937 cytoplasm fraction, [14C]arachidonyl-phosphatidyl choline liposome, 37° C., 60 minutes; read-out: cPLA2 inhibitory activity, 50% inhibiting concentration IC50
Method in brief: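 The read-out is radioactivity from extracted [14C]-arachidonic acid, freed over 60 min at 37° C from liposomes of 14C-arachidonyl phosphatidylcholine (10 μM PC in the added solution). Buffer was 50 mM HEPES pH 7.5 with Ca2+, DTT, NaCl and BSA. IC50 was derived from inhibition relative to enzyme control minus no-enzyme control.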

Row | SMILES | IC50 [nM]
1 | O=C(O)CCc1ccc2c(c1)c(CCc1ccccc1)cn2-c1cccc(S(=O)(=O)N2CCOCC2)c1 [Example 324, 3-{1-[3-(morpholin-4-ylsulfonyl)phenyl]-3-(2-phenylethyl)-1H-indol-5-yl}propanoic acid] | 1630
2 | CS(=O)(=O)c1ccc(-n2cc(CCc3ccccc3)c3cc(CCC(=O)O)ccc32)cc1 [Example 326, 3-{1-[4-(methylsulfonyl)phenyl]-3-(2-phenylethyl)-1H-indol-5-yl}propanoic acid] | 486
3 | O=C(O)CCc1ccc2c(c1)c(CCc1ccccc1)cn2-c1ccc(OCCCO)cc1 [Example 328, 3-{1-[4-(3-hydroxypropoxy)phenyl]-3-(2-phenylethyl)-1H-indol-5-yl}propanoic acid 2-amino-2-(hydroxymethyl)propane-1,3-diol salt (1:1)] | 57
4 | O=C(CCc1ccc2c(c1)c(CCc1ccccc1)cn2-c1ccc(OC(F)F)cc1)C(F)(F)F [Example 329, 4-{1-[4-(difluoromethoxy)phenyl]-3-(2-phenylethyl)-1H-indol-5-yl}-1,1,1-trifluorobutan-2-one] | 318
5 | O=C(CCc1ccc2c(c1)c(CCc1ccccc1)cn2-c1ccc(Oc2ccccc2)cc1)C(F)(F)F [Example 330, 1,1,1-trifluoro-4-[1-(4-phenoxyphenyl)-3-(2-phenylethyl)-1H-indol-5-yl]butan-2-one] | 726
6 | CS(=O)(=O)NC(=O)CCc1ccc2c(c1)c(CCc1ccccc1)cn2-c1ccc(Oc2ccccc2)cc1 [Example 331, N-(methylsulfonyl)-3-[1-(4-phenoxyphenyl)-3-(2-phenylethyl)-1H-indol-5-yl]propanamide] | > 3000
7 | O=C(CCc1ccc2c(c1)c(CCc1ccccc1)cn2-c1ccc(OC(F)F)cc1)NS(=O)(=O)c1ccccc1 [Example 332, 3-{1-[4-(difluoromethoxy)phenyl]-3-(2-phenylethyl)-1H-indol-5-yl}-N-(phenylsulfonyl)propanamide] | > 3000
8 | Cc1ccc(S(=O)(=O)NC(=O)CCc2ccc3c(c2)c(CCc2ccccc2)cn3-c2ccc(Oc3ccccc3)cc2)cc1 [Example 333] | > 3000
9 | CSc1ccc(-n2cc(CCc3ccccc3)c3cc(CCC(=O)O)ccc32)cc1 [Example 334, 3-[1-(4-methylthiophenyl)-3-(2-phenylethyl)-1H-indol-5-yl]propanoic acid] | 11
10 | O=C(O)CCc1ccc2c(c1)c(CCc1ccccc1)cn2-c1ccc(SCc2ccccc2)cc1 [Example 335, 3-[1-(4-benzylthiophenyl)-3-(2-phenylethyl)-1H-indol-5-yl]propanoic acid] | 9
11 | O=C(O)CCc1ccc2c(c1)c(CCCc1ccccc1)cn2-c1ccc(OCc2ccccc2)cc1 [Example 339, 3-{1-[4-(benzyloxy)phenyl]-3-(3-phenylpropyl)-1H-indol-5-yl}propanoic acid] | 460
12 | O=C(O)CCc1ccc2c(c1)c(CCCc1ccccc1)cn2-c1ccc(O)cc1 [Example 340, 3-[1-(4-hydroxyphenyl)-3-(3-phenylpropyl)-1H-indol-5-yl]propanoic acid] | 568
13 | O=C(O)CCc1ccc2c(c1)c(CCc1ccccc1)cn2-c1ccc(OCCOCc2ccccc2)cc1 [Example 342, 3-[1-{4-[2-(benzyloxy)ethoxy]phenyl}-3-(2-phenylethyl)-1H-indol-5-yl]propanoic acid] | 2
